Results: ChEMBL document CHEMBL2331548, “Identification of N-acyl 4-(3-pyridonyl)phenylalanine derivatives and their orally active prodrug esters as dual acting α4β1 and α4β7 receptor antagonists” (Bioorg Med Chem Lett, 2013)
In brackets after ≈: the same amount, converted by molar mass.

system: not listed separately; assay: Stability in plasma (unknown origin) assessed as unchanged prodrug level; type: ADME, cell-free; settings: not given

Row | Stability | SMILES
1 | Stable | Cc1cc(C(F)(F)F)c(-c2ccc(C[C@H](NC(=O)c3c(Cl)cccc3Cl)C(=O)OCC(O)CO)cc2)c(=O)n1C (some centres not stated)
2 | Stable | Cc1cc(C(F)(F)F)c(-c2ccc(C[C@H](NC(=O)c3c(Cl)cccc3Cl)C(=O)OCCN3CCOCC3)cc2)c(=O)n1C

system: not listed separately; assay: Oral bioavailability in rat; type: ADME, organism-based; settings: in vivo

Row | bioavailability | SMILES
3 | 17% | CC(=O)OC(C)OC(=O)[C@H](Cc1ccc(-c2c(C(F)(F)F)cc(C)n(C)c2=O)cc1)NC(=O)c1c(Cl)cccc1Cl (some centres not stated)
4 | 6% | Cc1cc(C(F)(F)F)c(-c2ccc(C[C@H](NC(=O)c3c(Cl)cccc3Cl)C(=O)OCC(O)CO)cc2)c(=O)n1C (some centres not stated)
5 | 2% | COCCCOC(=O)[C@H](Cc1ccc(-c2c(C(F)(F)F)cc(C)n(C)c2=O)cc1)NC(=O)c1c(Cl)cccc1Cl
6 | 15% | Cc1cc(C(F)(F)F)c(-c2ccc(C[C@H](NC(=O)c3c(Cl)cccc3Cl)C(=O)OCCN3CCOCC3)cc2)c(=O)n1C
7 | 12% | CCN(CC)CCOC(=O)[C@H](Cc1ccc(-c2c(C(F)(F)F)cc(C)n(C)c2=O)cc1)NC(=O)c1c(Cl)cccc1Cl

target: hERG (KCNH2) (Homo sapiens, UniProt Q12809); assay: Inhibition of human ERG; settings: not given
Sequence (Q12809 whole entry): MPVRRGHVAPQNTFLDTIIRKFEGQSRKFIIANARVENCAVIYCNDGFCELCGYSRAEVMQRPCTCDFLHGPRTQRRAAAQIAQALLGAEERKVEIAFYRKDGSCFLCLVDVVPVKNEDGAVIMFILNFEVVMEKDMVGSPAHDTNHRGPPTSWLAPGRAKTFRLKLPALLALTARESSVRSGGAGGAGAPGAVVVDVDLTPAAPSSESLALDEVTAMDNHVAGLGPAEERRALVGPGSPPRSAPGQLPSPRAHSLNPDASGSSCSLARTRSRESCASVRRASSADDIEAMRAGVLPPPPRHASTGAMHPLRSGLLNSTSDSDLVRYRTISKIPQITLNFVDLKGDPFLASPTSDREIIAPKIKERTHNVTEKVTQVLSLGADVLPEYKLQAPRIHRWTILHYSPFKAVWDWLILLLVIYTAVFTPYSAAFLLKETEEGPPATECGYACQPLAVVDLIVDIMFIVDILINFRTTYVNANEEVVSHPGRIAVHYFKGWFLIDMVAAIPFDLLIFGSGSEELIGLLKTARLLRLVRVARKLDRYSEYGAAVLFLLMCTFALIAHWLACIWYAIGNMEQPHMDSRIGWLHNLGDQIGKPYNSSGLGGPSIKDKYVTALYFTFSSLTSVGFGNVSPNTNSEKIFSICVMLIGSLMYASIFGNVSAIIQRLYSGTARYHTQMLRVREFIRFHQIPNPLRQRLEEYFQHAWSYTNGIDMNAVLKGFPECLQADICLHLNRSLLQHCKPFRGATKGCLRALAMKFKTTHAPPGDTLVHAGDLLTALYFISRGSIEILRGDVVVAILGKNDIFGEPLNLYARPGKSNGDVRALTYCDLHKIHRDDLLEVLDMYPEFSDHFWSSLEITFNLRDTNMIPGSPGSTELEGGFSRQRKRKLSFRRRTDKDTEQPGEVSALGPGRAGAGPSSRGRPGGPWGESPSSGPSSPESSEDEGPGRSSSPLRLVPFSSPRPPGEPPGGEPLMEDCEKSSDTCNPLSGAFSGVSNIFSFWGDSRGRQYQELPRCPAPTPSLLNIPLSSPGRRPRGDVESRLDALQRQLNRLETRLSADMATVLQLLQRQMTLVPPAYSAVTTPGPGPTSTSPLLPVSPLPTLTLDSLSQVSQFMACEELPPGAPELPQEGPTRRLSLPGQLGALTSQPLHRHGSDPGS

Row | SMILES | IC20
8 | Cc1cc(C(F)(F)F)c(-c2ccc(C[C@H](NC(=O)c3c(Cl)cccc3Cl)C(=O)OCCN3CCOCC3)cc2)c(=O)n1C | 11 µM
9 | CCN(CC)CCOC(=O)[C@H](Cc1ccc(-c2c(C(F)(F)F)cc(C)n(C)c2=O)cc1)NC(=O)c1c(Cl)cccc1Cl | 11.7 µM

system: not listed separately; assay: Stability in simulated intestinal fluid at pH 7.5 assessed as half life; type: physicochemical; settings: simulated gi fluid

Row | Stability | SMILES
10 | Stable | CC(=O)OC(C)OC(=O)[C@H](Cc1ccc(-c2c(C(F)(F)F)cc(C)n(C)c2=O)cc1)NC(=O)c1c(Cl)cccc1Cl (some centres not stated)
11 | Stable | COCCOC(=O)[C@H](Cc1ccc(-c2c(C(F)(F)F)cc(C)n(C)c2=O)cc1)NC(=O)c1c(Cl)cccc1Cl
12 | Stable | Cc1cc(C(F)(F)F)c(-c2ccc(C[C@H](NC(=O)c3c(Cl)cccc3Cl)C(=O)OCC(O)CO)cc2)c(=O)n1C (some centres not stated)

same assay, conditions: simulated intestinal fluid

Row | half-life | SMILES
13 | 4 h | Cc1cc(C(F)(F)F)c(-c2ccc(C[C@H](NC(=O)c3c(Cl)cccc3Cl)C(=O)OCCN3CCOCC3)cc2)c(=O)n1C
14 | 0.5 h | CCN(CC)CCOC(=O)[C@H](Cc1ccc(-c2c(C(F)(F)F)cc(C)n(C)c2=O)cc1)NC(=O)c1c(Cl)cccc1Cl

system: not listed separately; assay: Solubility in simulated gastric fluid at pH 2.0; type: physicochemical; settings: simulated gastric fluid, read-out: solubility

Row | solubility | SMILES
15 | 0.19 mg/mL (≈ 316 µM) | Cc1cc(C(F)(F)F)c(-c2ccc(C[C@H](NC(=O)c3c(Cl)cccc3Cl)C(=O)OCC(O)CO)cc2)c(=O)n1C (some centres not stated)
16 | > 13 mg/mL | Cc1cc(C(F)(F)F)c(-c2ccc(C[C@H](NC(=O)c3c(Cl)cccc3Cl)C(=O)OCCN3CCOCC3)cc2)c(=O)n1C
17 | > 5 mg/mL | CCN(CC)CCOC(=O)[C@H](Cc1ccc(-c2c(C(F)(F)F)cc(C)n(C)c2=O)cc1)NC(=O)c1c(Cl)cccc1Cl

same assay, conditions: simulated gi fluid, BLD = below limit of detection

Row | solubility | SMILES
18 | BLD | COCCOC(=O)[C@H](Cc1ccc(-c2c(C(F)(F)F)cc(C)n(C)c2=O)cc1)NC(=O)c1c(Cl)cccc1Cl

system: not listed separately; assay: Solubility in simulated intestinal fluid at pH 7.5; type: physicochemical; settings: not given

Row | solubility | SMILES
19 | 0.004 mg/mL (≈ 6.52 µM) | CC(=O)OC(C)OC(=O)[C@H](Cc1ccc(-c2c(C(F)(F)F)cc(C)n(C)c2=O)cc1)NC(=O)c1c(Cl)cccc1Cl (some centres not stated)
20 | 0.14 mg/mL (≈ 233 µM) | Cc1cc(C(F)(F)F)c(-c2ccc(C[C@H](NC(=O)c3c(Cl)cccc3Cl)C(=O)OCC(O)CO)cc2)c(=O)n1C (some centres not stated)
21 | 0.2 mg/mL (≈ 312 µM) | Cc1cc(C(F)(F)F)c(-c2ccc(C[C@H](NC(=O)c3c(Cl)cccc3Cl)C(=O)OCCN3CCOCC3)cc2)c(=O)n1C

system: not listed separately; assay: Apparent permeability across human Caco2 cells; type: ADME, cell-based; settings: Caco-2

Row | Papp | SMILES
22 | 275 nm/s | CC(=O)OC(C)OC(=O)[C@H](Cc1ccc(-c2c(C(F)(F)F)cc(C)n(C)c2=O)cc1)NC(=O)c1c(Cl)cccc1Cl (some centres not stated)
23 | 499 nm/s | COCCOC(=O)[C@H](Cc1ccc(-c2c(C(F)(F)F)cc(C)n(C)c2=O)cc1)NC(=O)c1c(Cl)cccc1Cl
24 | 18 nm/s | Cc1cc(C(F)(F)F)c(-c2ccc(C[C@H](NC(=O)c3c(Cl)cccc3Cl)C(=O)OCC(O)CO)cc2)c(=O)n1C (some centres not stated)
25 | 228 nm/s | COCCCOC(=O)[C@H](Cc1ccc(-c2c(C(F)(F)F)cc(C)n(C)c2=O)cc1)NC(=O)c1c(Cl)cccc1Cl
26 | 162 nm/s | Cc1cc(C(F)(F)F)c(-c2ccc(C[C@H](NC(=O)c3c(Cl)cccc3Cl)C(=O)OCCN3CCOCC3)cc2)c(=O)n1C
27 | 96 nm/s | CCN(CC)CCOC(=O)[C@H](Cc1ccc(-c2c(C(F)(F)F)cc(C)n(C)c2=O)cc1)NC(=O)c1c(Cl)cccc1Cl
